Results from PubChem BioAssay AID256 (DTP/NCI, 2004).
Several values for one entry are separate records, joined by “and”; a condition that tells them apart may be missing. Identical values can stand only once. Toxic doses and inconclusive results are not listed.

System: CD2F1 mice, L1210 leukemia ip, survival T/C
Assay: NCI In Vivo Anticancer Drug Screen. Data for tumor model L1210 Leukemia (intraperitoneal) in CD2F1 (CDF1) mice
Details: endpoint: mean survival time, higher = longer survival
How it was run: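 Mice carrying a transplanted tumor received test compound or vehicle alone. The value is the measurement in the treated group divided by that in the vehicle-treated control group.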

[1] = dose: 50.0 mg/kg/injection, schedule: Q04DX002 (ip), vehicle: saline with Tween-80
[2] = dose: 100.0 mg/kg/injection, schedule: Q04DX002 (ip), vehicle: saline with Tween-80
[3] = dose: 100.0 mg/kg/injection, schedule: Q04DX003 (ip), vehicle: saline with Tween-80
[4] = dose: 200.0 mg/kg/injection, schedule: Q04DX003 (ip), vehicle: saline with Tween-80
[5] = dose: 400.0 mg/kg/injection, schedule: Q04DX003 (ip), vehicle: saline with Tween-80
[6] = dose: 25.0 mg/kg/injection, schedule: Q01DX009 (ip), vehicle: saline with Tween-80
[7] = dose: 50.0 mg/kg/injection, schedule: Q01DX009 (ip), vehicle: saline with Tween-80
[8] = dose: 100.0 mg/kg/injection, schedule: Q01DX009 (ip), vehicle: saline with Tween-80
[9] = dose: 200.0 mg/kg/injection, schedule: Q01DX009 (ip), vehicle: saline with Tween-80
[10] = dose: 200.0 mg/kg/injection, schedule: Q04DX002 (ip), vehicle: saline with Tween-80
[11] = dose: 100.0 mg/kg/injection, schedule: Q01DX001 (ip), vehicle: saline with Tween-80
[12] = dose: 200.0 mg/kg/injection, schedule: Q01DX001 (ip), vehicle: saline with Tween-80
[13] = dose: 400.0 mg/kg/injection, schedule: Q01DX001 (ip), vehicle: saline with Tween-80
[14] = dose: 400.0 mg/kg/injection, schedule: Q01DX009 (ip), vehicle: saline with Tween-80
[15] = dose: 400.0 mg/kg/injection, schedule: Q04DX002 (ip), vehicle: saline with Tween-80

With FC1CC=C(S)CC1 (stereo not given) the T/C (dose: 5.0 mg/kg/injection, schedule: Q01DX001 (ip), vehicle: saline) was 100 % of control, the T/C (dose: 10.0 mg/kg/injection, schedule: Q01DX001 (ip), vehicle: saline) was 106 % of control and the T/C (dose: 20.0 mg/kg/injection, schedule: Q01DX001 (ip), vehicle: saline) was 103 % of control. For the same molecule, the T/C (dose: 40.0 mg/kg/injection, schedule: Q01DX001 (ip), vehicle: saline) was 100 % of control and the T/C (dose: 80.0 mg/kg/injection, schedule: Q01DX001 (ip), vehicle: saline) was 102 % of control.
In the case of CN(C)N=Nc1c(Cl)cccc1Cl, the T/C (dose: 9.38 mg/kg/injection, schedule: Q01DX009 (ip), vehicle: Klucel (hydroxypropylcellulose) (HPC)) is reported as 101 % of control, the T/C (dose: 18.75 mg/kg/injection, schedule: Q01DX009 (ip), vehicle: Klucel (hydroxypropylcellulose) (HPC)) is reported as 95 % of control and 103 % of control and the T/C (dose: 37.5 mg/kg/injection, schedule: Q01DX009 (ip), vehicle: Klucel (hydroxypropylcellulose) (HPC)) is reported as 97 % of control and 110 % of control. The T/C (dose: 300.0 mg/kg/injection, schedule: Q01DX009 (ip), vehicle: Klucel (hydroxypropylcellulose) (HPC)) was 89 % of control.
CNc1c(C)cc(C)c(NC)c1C was tested, and the T/C (dose: 25.0 mg/kg/injection, schedule: Q04DX002 (ip), vehicle: saline with Tween-80) was 104 % of control, the T/C [1] was 96 % of control and the T/C [2] was 116 % of control.
Cc1ccc(NC(=O)N(CCCl)N=O)cc1 was tested, and the T/C (dose: 9.0 mg/kg/injection, schedule: Q01DX015 (ip), vehicle: saline) was 189 % of control, the T/C (dose: 15.0 mg/kg/injection, schedule: Q01DX015 (ip), vehicle: saline) was 193 % of control and the T/C (dose: 25.0 mg/kg/injection, schedule: Q01DX015 (ip), vehicle: saline) was 87 % of control.
Cc1nc2c(NC(=O)CCl)nn(C)c2nc1C was tested, and the T/C [3] was 98 % of control and the T/C [4] was 95 % of control.
For O=c1[nH]c(-c2ccccc2)nc(-c2ccccc2)c1CCO, the T/C [3] was 95 % of control, the T/C [4] was 91 % of control and the T/C [5] was 106 % of control.
In the case of NC1=C(Cl)C(=O)c2ccccc2C1=O, the T/C [3] is reported as 102 % of control.
O=C(OCc1ccccc1)C1CC1 was tested, and the T/C (dose: 25.0 mg/kg/injection, schedule: Q01DX005 (ip), vehicle: saline with Tween-80) was 89 % of control, the T/C [6] was 96 % of control and the T/C (dose: 50.0 mg/kg/injection, schedule: Q01DX005 (ip), vehicle: saline with Tween-80) was 97 % of control. For the same molecule, the T/C [7] was 104 % of control, the T/C [1] was 97 % of control and the T/C (dose: 100.0 mg/kg/injection, schedule: Q01DX005 (ip), vehicle: saline with Tween-80) was 93 % of control. For the same molecule, the T/C [8] was 100 % of control, the T/C [2] was 102 % of control and the T/C (dose: 200.0 mg/kg/injection, schedule: Q01DX005 (ip), vehicle: saline with Tween-80) was 93 % of control. For the same molecule, the T/C [9] was 93 % of control and the T/C [10] was 102 % of control.
CC1(C)SC(C(NC(=O)Cc2ccccc2)C(=O)O)NC1C(=O)O (stereo not given) was tested, and the T/C [3] was 101 % of control, the T/C [4] was 103 % of control and the T/C [5] was 95 % of control.
In the case of CCOC(=O)Nc1cc(Cl)c2nnn(C(=O)OCC)c2n1, the T/C (dose: 12.5 mg/kg/injection, schedule: Q01DX005 (ip), vehicle: water) is reported as 105 % of control, the T/C (dose: 25.0 mg/kg/injection, schedule: Q01DX005 (ip), vehicle: water) is reported as 98 % of control and the T/C (dose: 50.0 mg/kg/injection, schedule: Q01DX005 (ip), vehicle: water) is reported as 96 % of control. For the same molecule, the T/C (dose: 100.0 mg/kg/injection, schedule: Q01DX005 (ip), vehicle: water) was 105 % of control.
In the case of CN(C)CC1CCC/C(=C\C=C\c2ccccc2)C1=O (stereo not given), the T/C (dose: 12.5 mg/kg/injection, schedule: Q04DX003 (ip), vehicle: Klucel (hydroxypropylcellulose) (HPC)) is reported as 100 % of control, the T/C (dose: 25.0 mg/kg/injection, schedule: Q04DX003 (ip), vehicle: Klucel (hydroxypropylcellulose) (HPC)) is reported as 103 % of control and the T/C (dose: 50.0 mg/kg/injection, schedule: Q04DX003 (ip), vehicle: Klucel (hydroxypropylcellulose) (HPC)) is reported as 94 % of control.
CCOC(=O)C(=O)C(C#N)c1ccccc1 (stereo not given) was tested, and the T/C (dose: 25.0 mg/kg/injection, schedule: Q01DX001 (ip), vehicle: Klucel (hydroxypropylcellulose) (HPC)) was 92 % of control, the T/C (dose: 50.0 mg/kg/injection, schedule: Q01DX001 (ip), vehicle: Klucel (hydroxypropylcellulose) (HPC)) was 100 % of control and the T/C (dose: 100.0 mg/kg/injection, schedule: Q01DX001 (ip), vehicle: Klucel (hydroxypropylcellulose) (HPC)) was 100 % of control and 106 % of control.
In the case of CC1CCN(N=Nc2ccccc2-c2nc(N)c3ccccc3n2)CC1, the T/C (dose: 100.0 mg/kg/injection, schedule: Q04DX002 (ip), vehicle: Klucel (hydroxypropylcellulose) (HPC)) is reported as 98 % of control, the T/C (dose: 200.0 mg/kg/injection, schedule: Q04DX002 (ip), vehicle: Klucel (hydroxypropylcellulose) (HPC)) is reported as 109 % of control and the T/C (dose: 400.0 mg/kg/injection, schedule: Q04DX002 (ip), vehicle: Klucel (hydroxypropylcellulose) (HPC)) is reported as 95 % of control.
For CCSC/C(=N\Nc1ccc([N+](=O)[O-])cc1[N+](=O)[O-])c1ccccc1, the T/C [3] was 109 % of control, the T/C [4] was 109 % of control and the T/C [5] was 102 % of control.
With O=C(Nc1ccc(C2=NCCN2)cc1)c1ccc(C(=O)Nc2ccc(C3=NCCN3)cc2)c([N+](=O)[O-])c1 the T/C (dose: 5.0 mg/kg/injection, schedule: Q01DX007 (ip), vehicle: saline) was 124 % of control, the T/C (dose: 5.0 mg/kg/injection, schedule: Q03DX003 (ip), vehicle: saline) was 107 % of control and the T/C (dose: 5.0 mg/kg/injection, schedule: Q04DX003 (ip), vehicle: saline) was 112 % of control. For the same molecule, the T/C (dose: 8.0 mg/kg/injection, schedule: Q01DX009 (ip), vehicle: saline) was 158 % of control, the T/C (dose: 10.0 mg/kg/injection, schedule: Q01DX007 (ip), vehicle: saline) was 155 % of control and the T/C (dose: 10.0 mg/kg/injection, schedule: Q01DX009 (ip), vehicle: saline) was 163 % of control. For the same molecule, the T/C (dose: 10.0 mg/kg/injection, schedule: Q03DX003 (ip), vehicle: saline) was 113 % of control, the T/C (dose: 10.0 mg/kg/injection, schedule: Q04DX003 (ip), vehicle: saline) was 112 % of control and the T/C (dose: 16.0 mg/kg/injection, schedule: Q01DX009 (ip), vehicle: saline) was 271 % of control. The T/C (dose: 20.0 mg/kg/injection, schedule: Q01DX007 (ip), vehicle: saline) was 181 % of control, the T/C (dose: 20.0 mg/kg/injection, schedule: Q01DX009 (ip), vehicle: saline) was 225 % of control and the T/C (dose: 20.0 mg/kg/injection, schedule: Q04DX003 (ip), vehicle: saline) was 115 % of control.
For OC(COc1ccc(Cl)cc1Cl)COc1ccc(Cl)cc1Cl, the T/C [3] was 95 % of control, the T/C [4] was 92 % of control and the T/C [5] was 93 % of control.
For CCCN(CCC)CCCC#N, the T/C [7] was 100 % of control and the T/C [8] was 101 % of control.
In the case of O=C(OCCO)c1oc2ccccc2c1OCCO, the T/C [11] is reported as 98 % of control, the T/C [12] is reported as 98 % of control and the T/C [13] is reported as 102 % of control.
Nc1ncnc2c1ncn2C1OC(CF)C(O)C1O (stereo not given) was tested, and the T/C (dose: 100.0 mg/kg/injection, schedule: Q01DX001 (ip), vehicle: saline) was 104 % of control and the T/C (dose: 200.0 mg/kg/injection, schedule: Q01DX001 (ip), vehicle: saline) was 98 % of control.
For CC(C)(CO)CBr, the T/C [8] was 95 % of control, the T/C [3] was 95 % of control and the T/C [9] was 102 % of control. The T/C [4] was 97 % of control, the T/C [14] was 98 % of control and the T/C [5] was 95 % of control.
With CCOC(=O)C1=C(C)NC(C)=C(C(=O)OCC)C1c1ccc(OC)cc1 the T/C [8] was 104 % of control, the T/C [3] was 97 % of control and the T/C [9] was 101 % of control. For the same molecule, the T/C [4] was 94 % of control, the T/C [14] was 97 % of control and the T/C [5] was 92 % of control.
For CC(C)(O)CCC(C)(O)C1CCC2C3CCC4CC(O)CCC4(C)C3CCC21C (stereo not given), the T/C [11] was 92 % of control, the T/C [12] was 93 % of control and the T/C [13] was 86 % of control.
For CC1(C)Oc2ccccc2O1, the T/C [6] was 106 % of control, the T/C [7] was 102 % of control and the T/C [8] was 93 % of control.
O=C(O)c1cc([N+](=O)[O-])cc([N+](=O)[O-])c1 (tested in a mixture with another compound) was tested, and the T/C [2] was 105 % of control and 114 % of control, the T/C [10] was 101 % of control and 105 % of control and the T/C [15] was 94 % of control.
In the case of O=C(O)c1cc(Br)c(-c2c(Br)cc(C(=O)O)cc2[N+](=O)[O-])c([N+](=O)[O-])c1, the T/C [8] is reported as 98 % of control, the T/C [3] is reported as 86 % of control and the T/C [9] is reported as 100 % of control. For the same molecule, the T/C [4] was 94 % of control and the T/C [5] was 91 % of control.
O=C(CC(O)(C(F)(F)F)C(F)(F)F)c1ccc([N+](=O)[O-])cc1 was tested, and the T/C (dose: 100.0 mg/kg/injection, schedule: Q01DX009 (ip), vehicle: other) was 97 % of control, the T/C (dose: 200.0 mg/kg/injection, schedule: Q01DX009 (ip), vehicle: other) was 97 % of control and the T/C (dose: 400.0 mg/kg/injection, schedule: Q01DX009 (ip), vehicle: other) was 101 % of control.
For CCCCCCCCCSc1nc2ccccc2s1, the T/C [2] was 87 % of control, the T/C [10] was 97 % of control and the T/C [15] was 93 % of control.
